# Reference: patent US7214697B2, “2-Oxo-benzimidazolyl substituted ethanolamine derivatives and their use as β3 agonists” (Eli Lilly and Company, priority 2002, dated 2007)
# Tested on: rat atria
# Assay: In Vitro Rat Atrial Tachycardia
# Details: isolated rat atria, cumulative addition until no further increase in atrial rate or 10^-4; average of at least 3 runs
# Experimental: Male rats (250–350 g) (Harlan Sprague Dawley, Indianapolis, Ind., USA) are killed by cervical dislocation. Hearts are removed and the left and right atria are dissected and mounted with thread in tissue baths containing 10 mls of modified Krebs' solution. Initial resting tension is 1.5–2.0 g at the outset of the experiment (Naunyn-Schmied Arch. Pharmacol., 320:145, 1982). Tissues are allowed to equilibrate approximately 30 minutes with vigorous oxygenation before exposure to a compound of the invention.
# To evaluate the ability of test compounds to increase heart rate, representative compounds of the present invention are added cumulatively once the atrial rate reached a steady state from the previous addition. Compound addition is continued until no further increase in atrial rate occurred or until a concentration of 10^−4 is reached. The increase in beats per minute (bpm) is measured for each concentration of test compound by means of a BioPac System (Br. J. of Pharmacol., 126:1018–1024, 1999).
# The “% increase” values represent the average of at least 3 runs.
row,Compound,% Increase in Heart Rate
1,CC(C)(Cc1ccc(Cc2ccc(C(N)=O)cn2)cc1)NC[C@H](O)COc1cccc2[nH]c(=O)n(CC3CCC3)c12 [Cyclobutylmethyl],6.5 ± 2.2%
2,CC(C)(Cc1ccc(Cc2ccc(C(N)=O)cn2)cc1)NC[C@H](O)COc1cccc2[nH]c(=O)n(CC3CCCC3)c12 [Cyclopentylmethyl],9.9 ± 0.3%
3,CC(C)(Cc1ccc(Cc2ccc(C(N)=O)cn2)cc1)NC[C@H](O)COc1cccc2[nH]c(=O)n(CC3CC3)c12 [Cyclopropylmethyl],8.9 ± 1.2%
4,"CCn1c(=O)[nH]c2cccc(OC[C@@H](O)CNC(C)(C)Cc3ccc(Cc4ccc(C(N)=O)cn4)cc3)c21 [Ethyl, reference compound]",19.9 ± 0.4%
5,"CC(C)(Cc1ccc(Cc2ccc(C(N)=O)cn2)cc1)NC[C@H](O)COc1cccc2[nH]c(=O)[nH]c12 [Hydrogen, reference compound]",17.7 ± 3.7%
6,"Cn1c(=O)[nH]c2cccc(OC[C@@H](O)CNC(C)(C)Cc3ccc(Cc4ccc(C(N)=O)cn4)cc3)c21 [Methyl, reference compound]",20.8 ± 1.8%

# Biological target: T1, human β3 adrenergic receptor (Homo sapiens, UniProt P13945)
# T1 construct: expressed in transfected cells; host or cells: DXB-11 Chinese hamster ovary (CHO) cell line, stably transfected (phd expression vector)
# Assay: whole cell receptor coupled c-AMP assay (Emax relative to isoproterenol)
# Assay type: cell-based
# Details: transfected CHO cells, c-AMP SPA; compound's maximal response divided by isoproterenol maximal response times 100; average of at least 3 runs; SEM in brackets; read-out: Emax (SEM), % intrinsic activity relative to isoproterenol
# Source text: The Emax values represent the average of at least 3 runs except as otherwise indicated.
# The genes encoding the human β1-adrenergic receptor (Frielle et al., Proc. Natl. Acad. Sci., 84:7920–7924, 1987), the human β2-adrenergic receptor (Kobika et al., Proc. Natl. Acad. Sci., 84:46–50, 1987, Emorine et al., Proc. Natl. Acad. Sci., 84:6995–6999, 1987) and the human β3 adrenergic receptor (GraTineman et al., Molecular Pharmacology, 44(2):264–70, 1993) are individually subcloned into a phd expression vector (Grinnell el al., Bio/Technology, 5:1189–1192, 1987) and transfected into the DXB-11 Chinese hamster ovary (CHO) cell line by calcium phosphate precipitation methodology. The stably transfected cells are grown to 95% confluency in 95% Dulbecco's modified Eagles Medium (DMEM), 5% fetal bovine serum and 0.01% proline. Media is removed and the cells are washed with phosphate buffered (pH 7.4) saline (without magnesium and calcium). Cells are then lifted using an enzyme free cell dissociation solution (Specialty Media, Lavallette, N.J.) and pelleted by centrifugation.
# Cells from each of the above cell lines are resuspended and added (20,000/well) to a 96-well plate. Cells are incubated at 37° C. with representative compounds of the invention for 20 minutes in buffer (Hank's balanced salt solution, 10 mM HEPES, 0.1% BSA, 1 mM L-ascorbic acid, 0.2% dimethyl sulfoxide, 1 mM 3-isobutyl-1-methylxanthine, pH 7.4). After halting the incubation with quench buffer (50 mM Na Acetate, 0.25% Triton X-100, pH 5.8), the c-AMP level is quantified by scintillation proximity assay (SPA) using a modification of the commercially available c-AMP kit (Amersham, Arlington Heights, Ill.) with rabbit anti-cAMP antibody (ICN Bioniedicals, Aurora, Ohio) for the kit.
# Sigmoidal dose response curves, from the whole cell receptor coupled c-AMP assay are fit to a four parameter logistic equation using non linear regression: y=(a-d)/(1+(Dose/c)^b)+d where a and d are responses at zero and maximal dose, b is the slope factor and c is the EC50 as previously described (DeLean et al., Am. J. Physiol., 235, E97–E102, 1978). EC50 is assessed as the concentration producing 50% of the maximum response to each agonist.
# Isoproterenol is accepted in the art as a non-selective β3 agonist and is widely used as a comparator in evaluating the activity of compounds. See Trends in Pharm. Sci., 15:3, 1994. The % intrinsic activity (Emax) of representative compounds of the invention is assessed relative to isoproterenol by the compound's maximal response divided by the isoproterenol maximal response times 100.
# T1 sequence (P13945 whole entry): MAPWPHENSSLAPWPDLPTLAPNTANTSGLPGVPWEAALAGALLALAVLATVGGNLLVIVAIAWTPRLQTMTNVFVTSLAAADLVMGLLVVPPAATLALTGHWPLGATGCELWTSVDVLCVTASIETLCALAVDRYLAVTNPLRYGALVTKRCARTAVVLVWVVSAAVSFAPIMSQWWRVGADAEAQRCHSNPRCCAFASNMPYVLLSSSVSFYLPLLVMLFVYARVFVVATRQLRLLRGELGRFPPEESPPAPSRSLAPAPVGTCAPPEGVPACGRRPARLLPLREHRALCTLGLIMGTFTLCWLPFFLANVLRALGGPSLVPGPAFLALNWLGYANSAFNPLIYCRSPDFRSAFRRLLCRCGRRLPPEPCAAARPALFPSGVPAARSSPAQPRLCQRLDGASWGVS
row,Emax,Compound
1,65.5%,CC(C)(C)Cn1c(=O)[nH]c2cccc(OC[C@@H](O)CNC(C)(C)Cc3ccc(Oc4ccc(C(N)=O)cn4)cc3)c21 [Example 12]
2,66.4%,CC(C)(C)Cn1c(=O)[nH]c2cccc(OC[C@@H](O)CNC(C)(C)Cc3ccc(Oc4ncccc4C(N)=O)cc3)c21 [Example 13]
3,67.9%,CC(C)(Cc1ccc(Oc2ccc(C(N)=O)cn2)cc1)NC[C@H](O)COc1cccc2[nH]c(=O)n(CC3CC3)c12 [Example 14]
4,80.1%,CC(C)(Cc1ccc(Oc2ncccc2C(N)=O)cc1)NC[C@H](O)COc1cccc2[nH]c(=O)n(CC3CC3)c12 [Example 15]
5,76%,CC(C)(Cc1ccc(Oc2ccc(C(N)=O)cc2Cl)cc1)NC[C@H](O)COc1cccc2[nH]c(=O)n(CC3CC3)c12 [Example 16]
6,58.2%,CC(C)(Cc1ccc(Oc2ccc(C(N)=O)cn2)cc1)NC[C@H](O)COc1cccc2[nH]c(=O)n(CC3CCC3)c12 [Example 17]
7,59.8%,CC(C)(Cc1ccc(Oc2ncccc2C(N)=O)cc1)NC[C@H](O)COc1cccc2[nH]c(=O)n(CC3CCC3)c12 [Example 18]
8,63.7%,CC(C)(Cc1ccc(Oc2ccc(C(N)=O)cn2)cc1)NC[C@H](O)COc1cccc2[nH]c(=O)n(CC3CCCC3)c12 [Example 19]
9,66.8%,CC(C)(Cc1ccc(Oc2ncccc2C(N)=O)cc1)NC[C@H](O)COc1cccc2[nH]c(=O)n(CC3CCCC3)c12 [Example 20]

# Tested on: not given
# Assay: not given
# Details: not given
row,melting point,Compound
1,159 to 164 °C (dec.),CC(C)(Cc1ccc(Oc2ccc(C(N)=O)cc2Cl)cc1)NC[C@H](O)COc1cccc2[nH]c(=O)n(CC3CCCC3)c12.Cl [Example 21]
